Experimental data taken from publication PMC4496667, “Large-scale Direct Targeting for Drug Repositioning and Discovery” (Scientific Reports, 2015).
Values joined by “and” are separate entries in the source; they are usually repeats but may differ in a detail not shown here. Equal values may be shown once. Read-outs that look alike come from different tables or passages of the source. One block for each compound: values may come before it.

How the values were obtained:
Faah = target: T1, Faah (Homo sapiens, UniProt O00519); experiment: FAAH Inhibitor Screening Assay Kit (Faah); type: biochemical; settings: target Faah; mean ± SD of three independent repeats, Bliss method, eight data points
T1 construct: purchased Cayman Chemical
T1 sequence (O00519 1-579): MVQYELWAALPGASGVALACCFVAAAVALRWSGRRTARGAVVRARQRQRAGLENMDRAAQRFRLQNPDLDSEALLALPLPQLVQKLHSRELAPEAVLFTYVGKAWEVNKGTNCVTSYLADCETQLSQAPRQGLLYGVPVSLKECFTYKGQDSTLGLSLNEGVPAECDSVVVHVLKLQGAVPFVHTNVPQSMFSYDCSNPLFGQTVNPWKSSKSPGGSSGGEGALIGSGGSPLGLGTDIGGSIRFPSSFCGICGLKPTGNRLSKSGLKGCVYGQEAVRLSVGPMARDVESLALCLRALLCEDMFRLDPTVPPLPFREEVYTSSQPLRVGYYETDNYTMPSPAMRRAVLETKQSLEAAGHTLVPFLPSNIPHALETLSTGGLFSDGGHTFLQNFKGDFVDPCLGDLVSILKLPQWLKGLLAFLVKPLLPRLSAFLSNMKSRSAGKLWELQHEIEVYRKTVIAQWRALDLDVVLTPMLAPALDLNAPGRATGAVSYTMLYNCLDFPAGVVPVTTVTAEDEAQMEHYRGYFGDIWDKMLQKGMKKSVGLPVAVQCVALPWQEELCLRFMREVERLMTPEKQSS
Procedure: (§1) To validate the practicability of WES model, we randomly selected Enpp2, Faah, PTGS2, PPARG, and REN, the five inflammation-related targets, and predicted their direct ligand-target interactions. The 24 top-scoring (hybrid-WES) and commercially available drug-target interactions (Table 3) were tested by the ligand-binding assays.
(§2) Enpp2 (Autotaxin Inhibitor Screening Assay Kit), Faah (FAAH Inhibitor Screening Assay Kit), PTGS2 (COX Inhibitor Screening Assay Kit), PPARG (PPARγ Ligand Screening Assay Kit), and REN (Renin Inhibitor Screening Assay Kit) were purchased from Cayman Chemical, Ann Arbor, MI, USA. […] The activity of targets was detected according to manufacturer’s instructions. IC50 values were determined using the Bliss method according to the eight data points per drug. The same drug-target interaction was repeated independently three times to obtain a mean IC50 value and its standard deviation.

REN = target: T2, REN (Homo sapiens, UniProt P00797); experiment: Renin Inhibitor Screening Assay Kit (REN); type: biochemical; settings: target REN; mean ± SD of three independent repeats, Bliss method, eight data points
T2 construct: purchased Cayman Chemical
T2 sequence (P00797 67-406): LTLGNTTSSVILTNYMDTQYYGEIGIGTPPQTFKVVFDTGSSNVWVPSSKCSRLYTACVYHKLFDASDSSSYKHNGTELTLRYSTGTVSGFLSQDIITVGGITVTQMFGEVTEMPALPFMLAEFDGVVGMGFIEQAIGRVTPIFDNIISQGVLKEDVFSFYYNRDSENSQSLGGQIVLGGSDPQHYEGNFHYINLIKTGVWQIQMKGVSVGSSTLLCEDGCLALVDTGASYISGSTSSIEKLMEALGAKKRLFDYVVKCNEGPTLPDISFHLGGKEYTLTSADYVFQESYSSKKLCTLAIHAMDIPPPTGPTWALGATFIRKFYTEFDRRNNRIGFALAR
Procedure: as §1, §2

PPARG = target: T3, PPARG (Homo sapiens, UniProt P37231); experiment: PPARγ Ligand Screening Assay Kit (PPARG); type: binding; settings: target PPARG; mean ± SD of three independent repeats, Bliss method, eight data points
T3 sequence (P37231 1-505): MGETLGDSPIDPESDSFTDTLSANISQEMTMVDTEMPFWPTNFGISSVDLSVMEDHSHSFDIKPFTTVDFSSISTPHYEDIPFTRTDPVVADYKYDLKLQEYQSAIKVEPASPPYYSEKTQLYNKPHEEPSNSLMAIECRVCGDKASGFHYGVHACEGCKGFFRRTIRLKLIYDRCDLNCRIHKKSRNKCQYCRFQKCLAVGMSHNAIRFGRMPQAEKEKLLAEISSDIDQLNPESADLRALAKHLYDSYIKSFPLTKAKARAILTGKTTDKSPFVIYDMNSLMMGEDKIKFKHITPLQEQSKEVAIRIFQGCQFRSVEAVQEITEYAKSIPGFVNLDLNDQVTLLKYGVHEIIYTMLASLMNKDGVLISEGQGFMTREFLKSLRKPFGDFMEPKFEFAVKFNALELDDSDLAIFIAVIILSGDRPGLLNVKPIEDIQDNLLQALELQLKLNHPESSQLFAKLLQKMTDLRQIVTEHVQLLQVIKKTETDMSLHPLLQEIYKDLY
Procedure: as §1, §2

Enpp2 = target: T4, Enpp2 (Homo sapiens, UniProt Q13822); experiment: Autotaxin Inhibitor Screening Assay Kit (Enpp2); type: biochemical
T4 construct: purchased Cayman Chemical
Procedure: as §1, §2

PTGS2 = target: T5, PTGS2 (Homo sapiens, UniProt P35354); experiment: COX Inhibitor Screening Assay Kit (PTGS2); type: biochemical; settings: target PTGS2; mean ± SD of three independent repeats, Bliss method, eight data points
T5 construct: purchased Cayman Chemical
T5 sequence (P35354 18-604): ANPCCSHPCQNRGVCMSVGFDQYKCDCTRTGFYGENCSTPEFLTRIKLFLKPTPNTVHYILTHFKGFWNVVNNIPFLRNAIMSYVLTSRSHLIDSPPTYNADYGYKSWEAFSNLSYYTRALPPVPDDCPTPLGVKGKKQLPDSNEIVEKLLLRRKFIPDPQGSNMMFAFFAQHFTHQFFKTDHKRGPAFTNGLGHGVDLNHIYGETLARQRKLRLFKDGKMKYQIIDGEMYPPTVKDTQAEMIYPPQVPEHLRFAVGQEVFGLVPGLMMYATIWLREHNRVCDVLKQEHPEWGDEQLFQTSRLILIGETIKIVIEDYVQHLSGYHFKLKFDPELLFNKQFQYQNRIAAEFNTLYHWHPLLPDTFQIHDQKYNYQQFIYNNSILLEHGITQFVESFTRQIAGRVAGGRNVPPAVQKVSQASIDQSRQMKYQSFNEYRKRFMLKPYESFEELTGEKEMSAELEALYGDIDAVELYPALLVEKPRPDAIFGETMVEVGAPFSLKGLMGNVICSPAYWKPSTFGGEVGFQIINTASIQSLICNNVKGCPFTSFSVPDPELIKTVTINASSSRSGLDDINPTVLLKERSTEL
Procedure: as §1, §2

[1] = target Enpp2, mean ± SD of three independent repeats, Bliss method, eight data points, read-out: IC50 (μM):mean ± SD

Compound: CC/C=C\C/C=C\C/C=C\CCCCCCCC(=O)O [Alpha-linolenic acid]
- IC50 (Faah): 43.9 µM and 53.9 µM

Compound: CC(C)C[C@H](NC(=O)[C@H](CCc1ccccc1)NC(=O)CN1CCOCC1)C(=O)N[C@@H](Cc1ccccc1)C(=O)N[C@@H](CC(C)C)C(=O)[C@@]1(C)CO1 [Carfilzomib]
- IC50 (REN): 22 ± 6.4 µM

Compound: COC(=O)CCc1ccc(OCC(O)CNC(C)C)cc1 (stereo not drawn) [Esmolol]
- IC50 (PPARG): 40.8 ± 6.5 µM

Compound: CCCCCCCCc1ccc(CCC(N)(CO)CO)cc1 [Fingolimod]
- IC50 (Enpp2; [1]): 115 ± 5.8 µM

Compound: CCN(CC)CC(=O)OCC(=O)[C@@]1(O)CC[C@H]2[C@@H]3CCC4=CC(=O)CC[C@]4(C)[C@H]3[C@@H](O)C[C@@]21C [Hydrocortamate]
- IC50 (Enpp2; [1]): 218 ± 6.4 µM

Compound: CN[C@H](CC(C)C)C(=O)N[C@H]1C(=O)N[C@@H](CC(N)=O)C(=O)N[C@H]2C(=O)N[C@H]3C(=O)N[C@H](C(=O)N[C@H](C(=O)O)c4cc(O)cc(O)c4-c4cc3ccc4O)[C@H](O)c3ccc(c(Cl)c3)Oc3cc2cc(c3O[C@@H]2O[C@H](CO)[C@@H](O)[C@H](O)[C@H]2O[C@H]2C[C@](C)(N)[C@H](O)[C@H](C)O2)Oc2ccc(cc2Cl)[C@H]1O [Vancomycin]
- IC50 (Enpp2): 68.5 ± 7 µM

Compound: Cetrorelix (AFASYRLRPA)
- IC50 (REN): 156 ± 3.7 µM

Compound: Felypressin (CFFQNCPKG)
- IC50 (REN): 4.5 ± 7.1 µM

Second part, the compound after the results:

- IC50 (REN): 44.3 ± 12.1 µM
Compound: CC(C)(C)NC(=O)[C@@H]1CN(Cc2cccnc2)CCN1C[C@@H](O)C[C@@H](Cc1ccccc1)C(=O)N[C@H]1c2ccccc2C[C@H]1O [Indinavir]

- IC50 (REN): 49.3 ± 10.3 µM
Compound: Cc1cccc(C)c1OCC(=O)N[C@@H](Cc1ccccc1)[C@@H](O)C[C@H](Cc1ccccc1)NC(=O)[C@H](C(C)C)N1CCCNC1=O [Lopinavir]

- IC50 (PTGS2): 123 ± 7.4 µM
Compound: C/C(=C\C(=O)OCCCCCCCCC(=O)O)C[C@@H]1OC[C@H](C[C@@H]2O[C@H]2[C@@H](C)[C@H](C)O)[C@@H](O)[C@H]1O [Mupirocin]

- IC50 (PTGS2): 199 ± 12.3 µM
Compound: CC[C@H](C)C(=O)O[C@H]1C[C@H](O)C=C2C=C[C@H](C)[C@H](CC[C@@H](O)C[C@@H](O)CC(=O)O)[C@H]21 [Pravastatin]

- IC50 (PTGS2): 138 ± 3.5 µM
Compound: Cc1c(C(=O)NN2CCCCC2)nn(-c2ccc(Cl)cc2Cl)c1-c1ccc(Cl)cc1 [Rimonabant]

- IC50 (Faah): 34.5 ± 1.5 µM
Compound: CC(=O)OCC(=O)NCCCOc1cccc(CN2CCCCC2)c1 [Roxatidine acetate]

- IC50 (REN): 69.1 ± 4.2 µM
Compound: CC(C)(C)NC(=O)[C@@H]1C[C@@H]2CCCC[C@@H]2CN1C[C@@H](O)[C@H](Cc1ccccc1)NC(=O)[C@H](CC(N)=O)NC(=O)c1ccc2ccccc2n1 [Saquinavir]

- IC50 (PPARG): 69 ± 17.5 µM
- IC50 (μM):mean ± SD (PPARG): micromolar concentration range
Compound: CCCCC[C@H](O)CC[C@@H]1[C@H]2Cc3cccc(OCC(=O)O)c3C[C@H]2C[C@H]1O [Treprostinil]

- IC50 (Enpp2; [1]): 73.3 ± 9.7 µM
Compound: Pasireotide
